Source: US20080268535A1, “Method for Inducing the Differentiation of Human Myelogenous Leukemia Cells Into Megakarocytes or Thrombocytes” (EWHA University - Industry Collaboration Foundation, priority 2005, published 2008)
Entries after “also recorded” stand apart in the source; their conditions may differ.

Experiments:
Type in all cases: cell-based, human
HEL cells [1] = test: Cell differentiation of HEL cells, optical microscopy; conditions: 5 μg/ml (R)-NALPCE, 10 nmole PMA or 50 ng/ml TPO, 5 days
Procedure: HEL cells were aliquoted at a density of 3×10^5 cells per well in 6-well plates and treated with 5 μg/ml of (R)-NALPCE, 10 nmole of PMA, or 50 ng/ml of TPO, followed by incubation in a day-dependent manner for 5 days. They were observed under an optical microscope with 200× magnification.

HEL cells [2] = test: Differentiation inductivity, lineage receptor expression by FACS, HEL cells; conditions: 5 μg/ml (R)-NALPCE 5 days or 10 nM PMA 3 days
Procedure: HEL cells were aliquoted at a density of 3×10^5 cells per well in 6-well plates and treated separately with 5 μg/ml of (R)-NALPCE and 10 nM of 12-phorbol myristate-13-acetate (PMA) (Calbiochem.), followed by incubation for 5 and 3 days, respectively. After centrifugation (1,000 rpm, 10 min), cell pellets thus obtained were washed three times with 0.01% bovine serum albumin (BSA) in PBS and incubated with 10 μl of anti-CD61-fluorescein-5-isothiocyanate (FITC) (Dako Chemicals, Carpenteria, Calif.), 20 μl of anti-CD16-Cy-Chrome (Cy) (BD Pharmingen), 10 μl of anti-glycophorin ACD235a-phycoerythrin (PE) (Dako Chemicals, Carpenteria, Calif.), and 20 μl of anti-CD14-allophycocyanin (APC) (BD Pharmingen) in 200 μl of 0.01% bovine serum albumin (BSA)-PBS at 4° C. for 50 min with spinning so as to achieve homogenous fluorescent staining over the cells. After centrifugation (1,000 rpm, 10 min), the cell pellets thus obtained were washed three times with 0.01% bovine serum albumin (BSA) in PBS. Fluorescence was analyzed on a fluorescence-activated cell sorter (FACS) (Aria) using a Cellquest program.

K562 cells [3] = test: Differentiation inductivity, lineage receptor expression by FACS, K562 cells
Procedure: K562 cells were aliquoted at a density of 2×10^5 per well in 6-well plates and treated with 40 μg/ml of (R)-NALPCE or 30 nM of PMA (12-phorbol myristate-13-acetate, Calbiochem.), followed by incubation for 4 days. After centrifugation (1,000 rpm, 10 min), the cell pellets thus obtained were washed three times with 0.01% bovine serum albumin (BSA) in PBS. The cells were incubated with 10 μl of anti-CD41-fluorescein-5-isothiocyanate (FITC) (Dako Chemicals, Carpenteria, Calif.), 20 μl of anti-CD16-Cy-Chrome (Cy) (BD Pharmingen), 10 μl of anti-glycophorin ACD235a-phycoerythrin (PE) (Dako Chemicals, Carpenteria, Calif.), and 20 μl of anti-CD14-allophycocyanin (APC) (BD Pharmingen) in 200 μl of 0.01% bovine serum albumin (BSA)-PBS at 4° C. for 50 min while spinning to realize homogeneous fluorescent staining. After centrifugation (1,000 rpm, 10 min), the cell pellets thus obtained were washed three times with 0.01% bovine serum albumin (BSA) in PBS. Fluorescence was analyzed on a fluorescence-activated cell sorter (FACS) (Aria) using a Cellquest program.

K562 cells [4] = test: Cell differentiation of K562 cells on OP9 cells, optical microscopy; conditions: for cell morphology (optical microscope): 5 days
Procedure: A stromal line of OP9 cells derived from […] was aliquoted at a density of 1×10^5 cells in 6-well plates and incubated for 24 hrs. After the OP9 cells were uniformly attached onto the bottom of the plates, K562 cells were layered at a density of 1×10^5 cells on the OP9 cells in 6-well plates. The cells were treated with 40 μg/ml of (R)-NALPCE, or 500 pmole, 10 nmole or 50 nmole of PMA before incubation for 5 days. They were observed under an optical microscope with 200× magnification.

Compound	cell morphology (optical microscope) (HEL cells [1])	expression of CD61, CD235a, CD16 and CD14 receptors (HEL cells [2])	expression of CD41, CD16, glycophorin A and CD14 receptors (K562 cells [3]; K562 cells, 40 μg/ml (R)-NALPCE or 30 nM PMA, 4 days)	number of cells expressing CD41, PMA versus (R)-NALPCE (K562 cells [3]; leukemia cells derived from human bone marrow, without OP9 cells)	production or secretion of thrombocytes by differentiated megakaryocytes (K562 cells [4]; (R)-NALPCE with OP9 cells, PMA treatment)	cell morphology (optical microscope) (K562 cells [4]; K562 cells on OP9 cells, 500 pmole of PMA)	cell morphology (optical microscope) (K562 cells [4]; K562 cells on OP9 cells, 10 nmole of PMA)	thrombocyte-like morphology (K562 cells [4]; K562 cells on OP9 cells, 10 nmole of PMA, 5 days or more after treatment)	cell morphology (optical microscope) (K562 cells [4]; K562 cells on OP9 cells, 50 nmole of PMA)
CCCCCCCCCCCCCC(=O)O[C@@H]1[C@@H](C)[C@@]2(O)[C@@H](C=C(CO)C[C@]3(O)C(=O)C(C)=C[C@@H]23)[C@@H]2C(C)(C)[C@]12OC(C)=O [PMA, phorbol 12-myristate 13-acetate]	increased in size, but with morphology different from that upon treatment with (R)-NALPCE, and differentiated into macrophages	CD61 (megakaryocyte-specific receptor), CD16 (neutrophil-specific receptor), and CD14 (monocyte-specific receptor) were expressed, particularly with a great increase of CD61	CD41 (megakaryocyte-specific receptor), CD16 (neutrophil-specific receptor), CD14 (monocyte-specific receptor) were expressed, particularly with a great increase of CD41	increased in number more in a medium containing PMA than in a medium containing (R)-NALPCE	could not secrete thrombocytes; also recorded: could not produce thrombocyte-like cells	did not differentiate, but proliferated, like a control	increase in size, but with morphology different from that of those treated with (R)-NALPCE	no morphology similar to thrombocytes was observed	differentiate into macrophages
TPO: TPO, comparison agent applied at 50 ng/ml to HEL cells; abbreviation not expanded in the text	did not undergo significant change	–	–	–	–	–	–	–	–
